# Measured values: patent US20260207632A1, “C[…] THERAPY” (KINGDOM THERAPEUTICS LIMITED, priority 2022, published 2026)
# Assays:
# rat VPA model of autism [1] = experiment: Juvenile social play behaviour (P30) in the in utero valproic acid (VPA) rat model of autism; format: in vivo; set-up: key to play behaviour: +: improvement; Ø: no change
# Method: Time-mated female Wistar rats were administered a single dose of valproic acid (VPA, 600 mg/kg, i.p.) on gestational day 12.5 (VPA/VEH). To determine behavioural deficits in the VPA autism model, male offspring were tested at juvenile (postnatal day 30) for the presence of abnormal behaviours associated with autism e.g., decreased sociability and increased irritability.
# (§1) In the first study, a sub-chronic 8-day dosing schedule was employed with the test compound CBD administered alone (10, 30 and 60 mg/kg, p.o. VPA/CBD; dose volume 5 ml/kg). Control animals were administered sterile saline (0.9% w/v, i.p.) in utero and the vehicle control (ethanol: Kolliphor HS-15:0.9% saline (1:1:18, v/v/v) p.o. VEH/VEH). The test compound and vehicle control were administered to the animals once daily for 7 days prior to, and once again on each day of behavioural assessment, 60 minutes prior to test which consisted of a battery of behavioural paradigms: P30 social play and bottle brush test, P31-32 open field exploratory behaviour. A reference positive control, the atypical antipsychotic risperidone (0.125 mg/kg, i.p., once per day for 8 days prior to and for duration of behavioural testing), was included in study one for comparison. Subsequent to behavioural analysis the effect of CBD on gastrointestinal permeability was evaluated four hours following oral administration of fluorescein isothiocyanate-labelled dextran measured in plasma on postnatal day 33. On postnatal day 34, 60 minutes post a final treatment with the test agents, animals were humanely euthanised and samples collected to evaluate inflammatory biomarkers, gastrointestinal function and histology. 5 In the second study, the sub-optimal dose of CBD (30 mg/kg, p.o.) was evaluated in combination with administration of THC at increasing concentration (0.75, 1.5 and 3 mg/kg, p.o. VPA/CBD+THC). Comparison was made to CBD administered alone at the sub-optimal and effective doses (30 and 60 mg/kg, p.o.) and to vehicle controls as per study one. Behavioural and gastrointestinal readouts were examined as per study one with terminal samples collected on the final day of the experiment.
# Time-mated female Wistar Han Rcc rats (Envigo, UK) were administered a single dose of valproic acid (VPA, Sigma Aldrich, Ireland, lot no. MKCB2699V, 600 mg/kg, i.p.) or vehicle (0.9% saline i.p.) on gestational day 12.5. Confirmation of the VPA induced developmental deficit was rapidly achieved by examination of characteristic “tail kinks” observed in all of the juvenile animals exposed to VPA. Litters were normalised to 8 animals and to male offspring at postnatal day 3. Male pups were cross fostered to make up the uniform litter size of eight. Male offspring were housed as per standard laboratory conditions until time of experimental use. Vehicle-treated control animals were employed as controls, with animals for both parts of the study prepared together. At weaning, animals were allocated into test groups according to a balanced design based on weight and litter to distribute these equally across each treatment group. Animals were introduced to the experimental holding rooms prior to the commencement of the study, housed in groups of 4 during this period in soft bottomed cages with sawdust bedding material, with enrichment consisting of nesting material, cardboard tubes and Perspex internal shelter, and maintained at 22-24° C. on a standard 12-hour light/dark cycle (07.30-19.30), with food and water available ad libitum. All animals were examined and weighed daily during drug treatment and experimental protocols. All procedures were carried out by individuals retaining the appropriate authorisation from the Irish Government Health Products Regulatory Authority. Furthermore, the study protocol was approved by the Animal Research Ethics Committee of University College Dublin, Ireland. […]
# rat VPA model of autism [2] = experiment: Gastrointestinal permeability (P33), FITC-dextran in plasma, VPA rat model; format: in vivo; set-up: key to gastrointestinal permeability: +: improvement; Ø: no change
# Method: as §1
# This assay is an indirect measure of total intestinal permeability. Animals are given an oral gavage of a fluorescently labelled small molecule (FITC-dextran), and at a subsequent timepoint the difference in fluorescence pre- and post-gavage is measured in plasma (Thevaranjan et al., 2017). Prior to gavage, a 50 μl sample of blood was collected by tail vein puncture. Animals then received 500 μl of 80 mg/ml FITC dextran (4 kDa Merck Ireland) by oral gavage and four hours later a second tail vein blood sample was collected. Tail vein blood sampling is facilitated through use of local anaesthetic EMLA cream following sterilisation of the tail. Blood samples were treated with 15% v/v acid-citrate-dextrose solution as an anticoagulant (38 mM citric acid, 107 mM sodium citrate, 136 mM dextrose), then mixed thoroughly by inversion and centrifuged at 5,000 rpm for 10 minutes. The plasma supernatant was transferred to microfuge tubes stored protected from light at 4° C. Each pre- and post-test plasma sample was diluted 1:5 in 1×PBS and a 100 μl aliquot was transferred to a 96-well plate. Readings of relative fluorescence units by a spectrophotometer were measured in duplicate and averaged. Fluorescence was determined at 530 nm with excitation at 485 nm. Permeability was expressed as relative fluorescence units between the groups being compared, determined by subtracting the PBS blank fluorescence from all samples and then subtracting the post-gavage fluorescence from the pre-gavage fluorescence. Treatment groups were prepared and analysed according to a blocked design to prevent bias.
# [3] = cohort one, risperidone 0.125 mg/kg i.p.
# [4] = study one, risperidone 0.125 mg/kg
# [5] = cohort two, CBD 30 mg/kg, THC 0 mg/kg p.o.
# [6] = cohort two, CBD 60 mg/kg, THC 0 mg/kg p.o.
# [7] = study one, CBD 30 mg/kg, vs VPA/VEH
# [8] = study one, CBD 60 mg/kg, vs VPA/VEH
smiles,measurement,setting,value
"Cc1nc2n(c(=O)c1CCN1CCC(c3noc4cc(F)ccc34)CC1)CCCC2 [Risperidone, risperidone]",play behaviour,rat VPA model of autism [1]; [3],Ø
same,any other measure of play or social interaction in juvenile animals,rat VPA model of autism [1]; risperidone 0.125 mg/kg,without effect
same,Mount Duration (sec),rat VPA model of autism [1]; [4],X (X = no effect)
same,Mount Frequency,rat VPA model of autism [1]; [4],X (X = no effect)
same,Social Play Duration (sec),rat VPA model of autism [1]; [4],X (X = no effect)
same,Social Play Frequency,rat VPA model of autism [1]; [4],X (X = no effect)
same,Social Play Latency (sec),rat VPA model of autism [1]; [4],X (X = no effect)
same,gastrointestinal permeability,rat VPA model of autism [2]; [3],Ø
same,increase in FITC dextran fluorescence (gastrointestinal permeability),"rat VPA model of autism [2]; study one, risperidone 0.125 mg/kg i.p.",without effect
"C=C(C)[C@@H]1CCC(C)=C[C@H]1c1c(O)cc(CCCCC)cc1O [CBD, cannabidiol]",play behaviour,"rat VPA model of autism [1]; cohort one, CBD 10 mg/kg p.o.",Ø
same,play behaviour,"rat VPA model of autism [1]; cohort one, CBD 30 mg/kg p.o.",Ø
same,play behaviour,"rat VPA model of autism [1]; cohort one, CBD 60 mg/kg p.o.",+
same,play behaviour,rat VPA model of autism [1]; [5],Ø
same,play behaviour,rat VPA model of autism [1]; [6],+
same,Mount Duration (sec),"rat VPA model of autism [1]; study one, CBD 10 mg/kg",X (X = no effect)
same,Mount Frequency,"rat VPA model of autism [1]; study one, CBD 10 mg/kg",X (X = no effect)
same,Social Play Duration (sec),"rat VPA model of autism [1]; study one, CBD 10 mg/kg",X (X = no effect)
same,Social Play Frequency,"rat VPA model of autism [1]; study one, CBD 10 mg/kg",X (X = no effect)
same,Social Play Latency (sec),"rat VPA model of autism [1]; study one, CBD 10 mg/kg",X (X = no effect)
same,latency to engage in mounting play behaviour (delay),"rat VPA model of autism [1]; study one, CBD 10 mg/kg, vs VPA/VEH",significantly attenuated
same,Mount Duration (sec),"rat VPA model of autism [1]; study one, CBD 30 mg/kg",X (X = no effect)
same,Mount Frequency,"rat VPA model of autism [1]; study one, CBD 30 mg/kg",X (X = no effect)
same,Social Play Duration (sec),"rat VPA model of autism [1]; study one, CBD 30 mg/kg",X (X = no effect)
same,Social Play Frequency,"rat VPA model of autism [1]; study one, CBD 30 mg/kg",X (X = no effect)
same,Social Play Latency (sec),"rat VPA model of autism [1]; study one, CBD 30 mg/kg",X (X = no effect)
same,latency to engage in mounting play behaviour (delay),rat VPA model of autism [1]; [7],significantly attenuated
same,Social Play Frequency,"rat VPA model of autism [1]; study one, CBD 60 mg/kg",X (X = no effect)
same,Social Play Latency (sec),"rat VPA model of autism [1]; study one, CBD 60 mg/kg",X (X = no effect)
same,decrease in duration of mounting behaviour,rat VPA model of autism [1]; [8],reversed
same,decrease in frequency of mounting behaviour,rat VPA model of autism [1]; [8],ameliorated
same,latency to engage in mounting play behaviour (delay),rat VPA model of autism [1]; [8],significantly attenuated
same,reduction in social play duration,rat VPA model of autism [1]; [8],significantly attenuated
same,reduction in social play duration,"rat VPA model of autism [1]; study two, CBD 30 mg/kg",without effect
same,decrease in duration of mounting behaviour,"rat VPA model of autism [1]; study two, CBD 60 mg/kg",reversed
same,reduction in social play duration,"rat VPA model of autism [1]; study two, CBD 60 mg/kg, vs VPA/VEH",significantly attenuated
same,Mount Duration (sec),"rat VPA model of autism [1]; study two, CBD alone 30 mg/kg",X (X = no effect)
same,Mount Frequency,"rat VPA model of autism [1]; study two, CBD alone 30 mg/kg",X (X = no effect)
same,Mount Latency (sec),"rat VPA model of autism [1]; study two, CBD alone 30 mg/kg",X (X = no effect)
same,Social Play Duration (sec),"rat VPA model of autism [1]; study two, CBD alone 30 mg/kg",X (X = no effect)
same,Social Play Frequency,"rat VPA model of autism [1]; study two, CBD alone 30 mg/kg",X (X = no effect)
same,Social Play Latency (sec),"rat VPA model of autism [1]; study two, CBD alone 30 mg/kg",X (X = no effect)
same,Mount Frequency,"rat VPA model of autism [1]; study two, CBD alone 60 mg/kg",X (X = no effect)
same,Mount Latency (sec),"rat VPA model of autism [1]; study two, CBD alone 60 mg/kg",X (X = no effect)
same,Social Play Frequency,"rat VPA model of autism [1]; study two, CBD alone 60 mg/kg",X (X = no effect)
same,Social Play Latency (sec),"rat VPA model of autism [1]; study two, CBD alone 60 mg/kg",X (X = no effect)
same,gastrointestinal permeability,"rat VPA model of autism [2]; cohort one, CBD 10 mg/kg p.o.",Ø
same,gastrointestinal permeability,"rat VPA model of autism [2]; cohort one, CBD 30 mg/kg p.o.",+
same,gastrointestinal permeability,"rat VPA model of autism [2]; cohort one, CBD 60 mg/kg p.o.",+
same,gastrointestinal permeability,rat VPA model of autism [2]; [5],Ø
same,gastrointestinal permeability,rat VPA model of autism [2]; [6],+
same,increase in FITC dextran fluorescence (gastrointestinal permeability),rat VPA model of autism [2]; [7],significantly prevented
same,increase in FITC dextran fluorescence (gastrointestinal permeability),rat VPA model of autism [2]; [8],significantly prevented
same,increase in FITC dextran fluorescence (gastrointestinal permeability),"rat VPA model of autism [2]; study two, CBD 30 mg/kg",without effect
same,increase in FITC dextran fluorescence (gastrointestinal permeability),"rat VPA model of autism [2]; study two, CBD 60 mg/kg",significantly prevented
